Laboratory results: PMC10507807, “De novo design of a stapled peptide targeting SARS-CoV-2 spike protein receptor-binding domain” (RSC Medicinal Chemistry, 2023)
Entries after “also recorded” stand apart in the source; their conditions may differ. Starred links: 1 amine or outer side, 2 acyl side, 3 side chain; linkers in the order of their positions; H or OH if unused. Positions of bridges follow the written chain, without caps; N, C: chain ends. Non-standard residues stand in square brackets, D forms with d. Residues, ends and D or L forms follow the SMILES beside them. X1 = C[C@@](CC=[*:3])(N[*:1])C(=O)[*:2]

Columns and labels:
[1] = biological target: recombinant SARS-CoV-2 spike B.1.617.2 (delta variant); format: binding
[2] = test system: SARS-CoV-2 alpha variant (B.1.1.7); format: cell-based
[3] = test system: omicron (B.1.1.529) variant; format: binding, SARS-CoV-2

| Compound | Kd ([1]; read-out: KD (dissociation constant)) | inhibition of SARS-CoV-2 virus replication [2] | decrease of viral replication compared to PBS control ([2]; 48 h) | binding to omicron variant [3] | dissociation constant of ACE2 with delta variant compared with wild-type spike [1] |
| --- | --- | --- | --- | --- | --- |
| CSCC[C@@H]1NC(=O)[C@H](CC(N)=O)NC(=O)[C@@H]2CC(=O)NCCCC[C@H](NC(=O)[C@H](Cc3c[nH]c4ccccc34)NC(=O)[C@@H](NC(=O)[C@H](CCCCN)NC(=O)[C@H](Cc3ccc(O)cc3)NC(=O)[C@H](CC(C)C)NC(=O)[C@H](Cc3c[nH]c4ccccc34)NC(=O)[C@H](CCC(=O)O)NC(=O)[C@@H](NC(=O)CNC(C)=O)[C@@H](C)O)C(C)C)C(=O)N[C@@H](C)C(=O)N[C@@H](Cc3ccccc3)C(=O)N[C@@](C)(C/C=C/C[C@@](C)(C(=O)O)NC1=O)C(=O)N2 [pep39] (Ac-GTEWLYKVWKAF[X1]DNM[X1]-OH; lactam 10-14; staple (E) 13-17) | 4.1 ± 1.4 µM | strongly inhibits SARS-CoV-2 virus replication in Vero E6 cells; also recorded: SARS-CoV-2 viral replication was significantly inhibited | 82.3% | not as promising as those observed with the original spike protein and the delta variant |  |
| ACE2 |  |  |  |  | more favorable for binding than the wild-type spike protein |
